Experiment [1] deals with T1, Hen egg white lysozyme (HEWL) (Gallus gallus, UniProt P00698).
T1 construct: gene LYZ; native egg-white protein, commercial (Sigma), dialysed; mature chain, 129 residues, monomer, four disulfides
As to the kind of experiment: heat-induced aggregation, turbidity at […] nm, single exponential fit. The class given is biochemical. The settings on record: pH 7.4, 65°C, 120 h, 10 μM HEWL, stirring; inhibition of aggregation.

Experiment [2] addresses T1, Hen egg white lysozyme (HEWL). Put plainly: intrinsic Trp fluorescence quenching, modified Stern-Volmer. The class given is binding. The settings on record: pH 7.4, 20 mM sodium phosphate, 25°C, 5 μM HEWL, excitation 295 nm, double-log. An excerpt:
intrinsic Trp fluorescence quenching, modified Stern-Volmer on Hen egg white lysozyme (HEWL)

T1 sequence (P00698 19-147): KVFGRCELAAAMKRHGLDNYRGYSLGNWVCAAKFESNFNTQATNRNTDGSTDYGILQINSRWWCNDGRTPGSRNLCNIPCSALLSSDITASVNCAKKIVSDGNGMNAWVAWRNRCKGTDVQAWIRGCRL

In experiment [1], `NC(=O)c1cnccn1` [pyrazinamide] returned a Λ of 1500 M⁻¹. For the same compound, the binding constant result in experiment [2] (n = 1.2) is given as “(2.45±0.19)×10^4 M^-1”.
As to `N[C@@H]1CONC1=O` [D-cycloserine, D-4-amino-3-isoxazolidone], the Λ in experiment [1] came to 470 M⁻¹. Moreover, the binding constant entry in experiment [2] (n = 1.1, unreliable (text b59 prints another value)) is “(2.70±0.18)×10^3 M^-1”.
